According to patent US20040235007A1, “Method for detecting negatively supercoiled DNA” (National Institute of Genetics, priority 2003, published 2004):

What was measured:
hsp70-coding region = experiment: Southern analysis of psoralen crosslinking in salivary glands; format: cell-based, Drosophila melanogaster; conditions: heat-shocked salivary gland chromosomes treated with α-amanitin prior to the crosslinking step; FIG. 3 lanes 6 and 7
Experimental: (§1) Drosophila melanogaster Oregon R was grown at 18° C. According to the test protocol, some third-instar larvae were subjected to heat shock treatment; i.e., the larvae were collected in a polypropylene tube, and the tube was submerged in a 37° C. water bath for 10 minutes. Salivary glands were obtained through dissection of the larvae in a dissection buffer (10 mM HEPES-KOH (pH 7.6), 5 mM MgCl2, 5 mM KCl, 130 mM NaCl, 1% polyethylene glycol 6000). Also according to the test protocol, some of the salivary gland specimens were exposed to X-ray irradiation for 60 minutes at a dose rate of about 3 Gy/min (TORREX CABINET X-RAY SYSTEM Model TRX2800, Faxitron), whereby nicks were introduced into DNA.
Application of heat shock and dissection of larvae were performed in a manner similar to those employed for staining. […]
After electrophoresis, the gel was incubated with a denaturing solution (0.5M NaOH, 1.5M NaCl) at 65° C. for 100 minutes for reverse crosslinking of DNA with psoralen. […] Hybridization signals were detected by use of X-ray film. […]
The protocol will be described briefly as follows. […] The DNA fragments were blotted onto a nylon membrane. hsp70 located at 87A7 (FIG. 1, CRs and DDS) was analyzed using probes through the Southern method. […]

[1] = tested on: negative supercoils of DNA on salivary gland chromosomes; experiment: Staining of salivary gland chromosomes with biotinylated psoralen / Alexa 488-labeled streptavidin; format: cell-based, Drosophila melanogaster
Experimental: as §1
Four or five pairs of salivary glands were treated with a dissection buffer (40 μL) containing 0.01% digitonin and rinsed with a dissection buffer containing no digitonin. Subsequently, the resultant salivary glands were treated with a dissection buffer containing 0.2 ng/ml biotinylated psoralen for 10 minutes. […] Br-UTP was detected with anti-BrdU monoclonal antibody (Roche) and rhodamin-labeled anti-mouse IgG antibody.
Biotinylated psoralen was detected with Alexa 488-labeled streptavidin (Molecular Probe). […] Fluoroimages were analyzed with a Carl Zeiss Axioplan 2 microscope and IP lab software.
In order to visualize negative supercoils of DNA on salivary gland chromosomes throughout the entire genome, we have extended the psoralen crosslinking protocol, using a protocol in which biotinylated psoralen is detected with fluorescence-labeled streptavidin. […] Biotinylated psoralen was detected with Alexa 488-labeled streptavidin. […] Such signals were not detected when the chromosomes had been treated with a psoralen-free buffer, or when the crbsslinking step was not performed after treatment with psoralen. […] When chromosomes had been irradiated with X-ray (180 Gy) before crosslinking with biotinylated psoralen to thereby introduce nicks into the DNA, psoralen signals which may otherwise appear in interbands and puffs were not detected (FIGS. 5A to 5C). […]

[2] = heat shocked larvae, α-amanitin treatment prior to crosslinking, FIGS. 7D to 7F

α-Amanitin
crosslink-related signals (psoralen crosslinking, Southern) (hsp70-coding region): substantially no crosslink-related signals were detected
configuration of heat shock puffs [1, 2]: did not affect
psoralen signals in heat shock puffs [1, 2]: not detected
psoralen signals in interbands and puffs ([1]; non-heat shocked, 3 μg/mL α-amanitin before crosslinking with biotinylated psoralen, FIGS. 5D and 5E): undetected
